How the values were obtained:
[1] = test system: isolated myocardium of guinea-pigs (right ventricular papillary muscles); assay: Effects on the action potential duration in the isolated myocardium of guinea-pigs; format: cell-based, guinea-pigs (male, Hartley strain); settings: Cavia porcellus, 10 min, stimulated at 1 Hz, 37° C.; for APD90 prolongation (%) at 10 µM / inhibition at 10 µM: 10^-5 M, another 10 min; for inhibition at 10 µM / inhibition at 1 µM: read-out: Vmax inhibition (%); for APD90 prolongation (%) at 1 µM / inhibition at 1 µM: 10^-6 M, first 10 min
Experimental: Right ventricular papillary muscles were isolated from male guinea-pigs of Hartley strain weighing 300 to 400 g and fixed at the bottom of an acrylic bath with pins. They were perfused with Tyrode solution kept at 37° C. and saturated with a mixture of 95% O2 and 5% CO2. The muscles were stimulated at 1 Hz with rectangular pulses of 1 msec duration and supramaximal voltage. Action potentials were recorded using conventional glass microelectrodes filled with 3M KCl. The duration of the action potential and the maximum velocity of the upstroke of the action potential (Vmax) were determined. Each of the test compounds was included in Tyrode solution at 10^-6 or 10^-5 M and perfused.
The test compounds shown in Example 1 were as follows. Sotalol, a beta-adrenoceptor antagonist was employed as the reference drug because this compound is known to prolong the duration of the myocardial action potential.
Results are shown below in terms of APD90 prolongation (%) and Vmax inhibition (%).

[2] = Acute toxicity test, intravenous injection in mice; settings: mouse, in vivo, male ddy mice weighing 20 to 30 g
Experimental: Acute toxicity tests of typical compounds (the above-mentioned compounds A and B) of the present invention were conducted by applying them to male ddy mice weighing 20 to 30 g by intravenous injection.
Acute toxicity tests of typical compounds (the above-mentioned compounds A to E) of the present invention were conducted by applying them to male ddy mice weighing 20 to 30 g by intravenous injection.

SMILES	APD90 prolongation (%) at 10 µM [1]	inhibition at 10 µM [1]	APD90 prolongation (%) at 1 µM [1]	inhibition at 1 µM [1]	LD50 [2]
CC(C)NCC(O)c1ccc(NS(C)(=O)=O)cc1 (centres unmarked) [Sotalol, reference compound]	7%	0%	0%	0%	
CS(=O)(=O)Nc1ccc(SC2CCN(CCc3cccnc3)CC2)cc1 [compound (1) A]	20%	0%	11%	0%	180 to 400 mg/kg
CS(=O)(=O)Nc1ccc([S+]([O-])C2CCN(CCc3cccnc3)CC2)cc1 (centres unmarked) [compound (1) B]	40%	0%	14%	0%	180 to 400 mg/kg
Cc1cccc(CCN(C)CC(=O)c2ccc(NS(C)(=O)=O)cc2)n1 [compound (2) A]	16%	0%	12%	0%	
Cc1cccc(CCN(C)CCC(=O)c2ccc(NS(C)(=O)=O)cc2)n1 [compound (2) B]	19%	0%	18%	0%	
Cc1cccc(CCN(C)CCCC(=O)c2ccc(NS(C)(=O)=O)cc2)n1 [compound (2) C]	31%	0%	17%	0%	
CCN(CCCC(=O)c1ccc(NS(C)(=O)=O)cc1)CCc1cccc(C)n1 [compound (2) D]	31%	0%	17%	0%	
Cc1cccc(CCN(C)CCCCC(=O)c2ccc(NS(C)(=O)=O)cc2)n1 [compound (2) E]	27%	0%	14%	0%	
CS(=O)(=O)Nc1ccc(C(CO)N2CCC(C(=O)c3ccc(F)cc3)CC2)cc1 (centres unmarked) [compound (3) A]	25%	0%	16%	0%	180 to 400 mg/kg
CS(=O)(=O)Nc1ccc(C(CO)N2CCC(C(=O)c3ccc(Cl)cc3)CC2)cc1 (centres unmarked) [compound (3) B]	11%	0%	13%	0%	180 to 400 mg/kg
